Assay results: patent US9901611B2 (Molecular Defenses Corporation, priority 2015, dated 2018)
Like-named read-outs stand apart in the source and are kept apart here.

Columns and labels:
[1] = human, in vivo, iv; cited from earlier work
[2] = rat, i.v. bolus, cited from earlier work
[3] = 1,200 mg/day i.v., compared to baseline; cited from earlier work
[4] = cited from earlier work
HIV-1 = conditions: in vitro, cited from earlier work
HIV = conditions: U1 cells, in the absence of cytotoxic or cytostatic effects; cited from earlier work
[5] = Phase I/II clinical trial of oral GSH in HIV positive patients, PBMC intracellular GSH; type: in vivo, human
From the text: Early clinical trials determined the pharmacokinetics of absorption and intracellular distribution in Peripheral Blood Mononuclear Cells in asymptomatic HIV (+) patients, using three doses of 1 gm, 2 gms and 3 gms/day over a 4 week period, with two weeks of baselines, plus two weeks of post drug exposure.

[6] = far advanced AIDS
From the text: A clinical study on far advanced AIDS patients who had exhausted the HAART combinations and averaged 300,000 copies (HIV RNA PCR) and 50 CD4+ cells/per cubic mm.

[7] = system: high-affinity component of mitochondrial GSH transport; conditions: stimulated by ATP; cited from earlier work
microglial cells = conditions: microglia, NO and superoxide generated simultaneously; cited from earlier work
[8] = in vivo, po; for share absorbed and intracellular: 1.5 hours
From the text: It would be possible to follow the two groups and to compare the rates of progression to determine statistically significant differences.

[9] = system: mouse cytotoxic T-lymphocytes; conditions: i.p. injection on the third day post immunization; cited from earlier work
[10] = mouse, GSH pretreatment; cited from earlier work
[11] = infusion 10 mg/min for 120 min, cited from earlier work
[12] = 5 g oral per day, two female patients who survived 1 year; cited from earlier work
[13] = rats, LPS; cited from earlier work
HIV-1 LTR = conditions: Jurkat cells, synergistic induction by TNFα and Tat; cited from earlier work
[14] = high end of dose range 50-300 mmol/kg
[15] = low end of dose range 50-300 mmol/kg
[16] = asymptomatic HIV (+) patients, 1, 2 and 3 gms/day

## N[C@@H](CCC(=O)N[C@@H](CS)C(=O)NCC(=O)O)C(=O)O [GSH, gamma-glutamyl-cysteinyl-glycine]
[1]
  half-life: 14.1 ± 9.2 min
[2]; [14]
  apparent volume of distribution: 1.33 L/kg
  half-life of the elimination phase: 11.4 min
  rate constant for drug elimination and plasma clearance: 2.44 mL/min
[2]; [15]
  apparent volume of distribution: 3.78 L/kg
  half-life of the elimination phase: 52.4 min
  rate constant for drug elimination and plasma clearance: 0.84 mL/min
[3]
  hematologic parameters (hematocrit, hemoglobin, blood count): significantly increase
[4]; 1,844 mg i.v. bolus, hypertensive patients and non-hypertensive diabetics, within ten minutes
  systolic and diastolic blood pressure: rapid and significant decrease
[4]; 3,699 mg dose, normal subjects
  blood pressure values: significant decrease
HIV-1; intracellular GSH in infected monocytes raised to the high end of the normal range
  duration of suppression of HIV production: about 35 days
HIV-1; single pulse exposure
  HIV-1 p24 antigen levels and reverse transcriptase activity: sustained, concentration-dependent decrease
HIV
  induction of HIV expression mediated by PMA, TNF-α or IL-6: suppressed in a dose-dependent fashion
[5]; 1 gm, 2 gms and 3 gms/day
  relation of dose to PBMC GSH: dose response relationship
[5]; [16]
  completion of absorption and distribution within the PBMC: 60 min
  start of absorption and distribution within the PBMC after ingestion: 30 min
[5]; asymptomatic HIV (+) patients, 4 week period
  toxicities: no evidence of toxicities
[6]; 75 mg/kg in two divided doses, four patients who followed the regimen
  survival after starting on GSH: 3 years
[6]; four patients
  CD4+ cell counts: did not restore their CD4+ cell counts to any extent
[7]
  Km: ~60 µM
  V max: approximately 0.5 nM/min per mg of protein
Microglial cells
  peroxynitrite formation: significantly decreased
[8]; human
  share absorbed and intracellular: 70-80%
[8]
  toxicities: no significant toxicities
  share absorbed and intracellular: 80%
[9]
  augmentation of cytotoxic activity: 5 fold
[10]
  morphine-induced lethality: protects against morphine-induced lethality
[11]
  insulin clearance and action: No effect was seen
[11]; patients with IGT
  glucose-induced insulin secretion: significantly potentiated
[12]
  tumor growth: regression or stagnation of their tumor growth

## CC(=O)N[C@@H](CS)C(=O)O [NAC, N-acetyl-L-cysteine]
HIV
  induction of HIV expression mediated by PMA, TNF-α or IL-6: suppressed in a dose-dependent fashion
[13]
  decrease of lung lavage neutrophil count: six fold
HIV-1 LTR
  HIV-1 LTR-mediated gene expression: significantly suppressed

## N/C(=N\O)c1cc(O)c(O)c(O)c1 [TD, Trimidox]
HIV-1 LTR
  HIV-1 LTR-mediated gene expression: significantly suppressed

## GSH ester [GSE]
HIV
  induction of HIV expression mediated by PMA, TNF-α or IL-6: suppressed in a dose-dependent fashion
